Here are results for eight compounds from patent US6207399A, “Methods of determining endogenous thrombin potential (ETP) and thrombin substrates for use in said methods” (Hemker; Hendrik Coenraad, priority 1995, dated 2001).

Test [1] concerns the target T1, human α-thrombin (Homo sapiens, UniProt P00734).
T1 construct: Pure human α-thrombin; gift of Dr. T. Lindhout (University of Limburg, Maastricht)
Nature of the test: Kinetics of hydrolysis of substrates by human α-thrombin in buffer A at 37° C. (Example 2, Table 1). The class given is biochemical. As to the method: (§1) Kinetic parameters: The hydrolysis experiments were run in buffer A at 37° C. The liberation of p-nitroaniline was monitored at 405 nm in a dual wavelength (405-546 nm) spectrophotometer made in our workshop, using a personal computer for data recording. In a polystyrene microcuvette (total volume 500 μL), buffer A and substrate solution were added to obtain a final substrate concentration between 1 to 2000 μM. After 5 min of incubation at 37° C., enzyme solution was added to achieve a final concentration between 0.5 to 100 nM. The measurement was carried out at 37° C. in a thermostated cuvette-holder. The Michaelis constant (Km) and the catalytic constant (kcat) were obtained by measuring initial reaction velocities at different substrate concentrations. The data obtained were fitted by linear regression on the Michaelis-Menten equation.
(§2) Kinetic parameters: In a preliminary experiment, the substrate was hydrolyzed under the following conditions: enzyme concentration: 10 to 20 nM, substrate concentration: 200 μM in buffer A to get an impression of the initial velocity. […] The results are given in table 1 and 2 for thrombin and factor Xa respectively. The Km and kcat for each substrate were determined from the initial velocities measured for at least six substrate concentrations in the concentration range as given. The enzyme concentration used gives a good signal to noise ratio. The data given are obtained from one or two experiments. The data from table 1 and 2 were only used as the first selection criterion to get a rough impression of the hydrolysis behaviour. Notwithstanding the preliminary character of the measurement it was helpful in the design of the substrates of our interest.

Test [2] deals with thrombin (Homo sapiens, UniProt P00734). Briefly: Kinetic parameters of hydrolysis of the substrates by thrombin in buffer A at 37° C. (Example 4, Table 3). The following applies: buffer A, 37° C. More on the design: Pure human α-thrombin; gift of Dr. T. Lindhout (University of Limburg, Maastricht). The class given is biochemical. As for the experimental part: as §1, with “200” for “1”, “50” for “100”, “measuring the” for “measuring”
(§3) Kinetic parameters: The Km and kcat values for each substrate were determined at an enzyme concentration of 0.5-50 nM (thrombin) and 50 nM factor Xa. From the initial reaction velocities, measured for at least six substrate concentrations between 200 and 2000 μM, the Km and kcat values were calculated by linear regression on the Michaelis-Menten curve. Table 3 gives an overview of the kinetic parameters of the different substrates hydrolyzed by thrombin and by factor Xa in buffer A.

Test [3] has as its target T2, factor Xa (Homo sapiens, UniProt P00742).
T2 construct: human factor Xa samples; gift of Dr. T. Lindhout (University of Limburg, Maastricht)
Nature of the test: Kinetic parameters of hydrolysis of the substrates by factor Xa in buffer A at 37° C. (Example 4, Table 3). The test is classed as biochemical. The following applies: buffer A, 37° C., 50 nM factor Xa. As for the experimental part: as §1, with “200” for “1”, “50” for “100”, “measuring the” for “measuring”
as §3

The target of test [4] is T2, factor Xa. Briefly: Kinetics of hydrolysis of substrates by human factor Xa in buffer A at 37° C. (Example 2, Table 2). The class given is biochemical. As to the method:
as §1, §2

Test [5] relates to protein C. The following applies: Serbio patent EP-B-0 280 610; cited from earlier work.
The test system of test [6] is thrombin. The following applies: Serbio patent EP-B-0 280 610; cited from earlier work.
Test [7] relates to Factor Xa. The following applies: Serbio patent EP-B-0 280 610; cited from earlier work.
The test system of test [8] is plasmin. The following applies: Serbio patent EP-B-0 280 610; cited from earlier work.
Test [9] deals with thrombin. The following applies: Svendsen et al; cited from earlier work.

Peptide text beside a SMILES is read from it. * marks the point of attachment. pNA = O=[N+]([O-])c1ccc(N*)cc1; Boc = CC(C)(C)OC(=O)*; Bz = O=C(c1ccccc1)* A value given as a limit tells only on which side of the number the result lay.

T2 sequence (P00742 41-179 limits assumed): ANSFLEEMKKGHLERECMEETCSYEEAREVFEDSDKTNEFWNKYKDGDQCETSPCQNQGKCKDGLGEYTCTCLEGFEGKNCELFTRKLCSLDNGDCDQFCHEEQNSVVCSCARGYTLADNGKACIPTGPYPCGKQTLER
T2 sequence (P00742 235-488 limits assumed): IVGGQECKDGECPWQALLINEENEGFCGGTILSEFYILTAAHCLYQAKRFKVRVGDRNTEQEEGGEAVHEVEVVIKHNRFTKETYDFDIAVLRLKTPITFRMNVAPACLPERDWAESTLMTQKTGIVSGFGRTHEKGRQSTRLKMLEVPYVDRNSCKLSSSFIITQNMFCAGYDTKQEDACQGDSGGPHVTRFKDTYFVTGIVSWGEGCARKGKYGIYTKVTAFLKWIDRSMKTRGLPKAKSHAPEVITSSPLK

As a reminder, the Km is the substrate concentration at which the rate is half of its maximum. As usually defined, the kcat is the number of substrate molecules converted per active site and unit of time at saturation. On to `CC(C)[C@H](NC(=O)CN)C(=O)N[C@@H](CCCNC(=N)N)C(=O)Nc1ccc([N+](=O)[O-])cc1.Cl.Cl` [2HCl.H-Gly-Val-Arg-pNA] (H-Gly-Val-Arg-pNA), for which, in test [1], the Km worked out at 1.64 mM, the kcat amounted to 16.54 s⁻¹ and the “kcat /Km” value amounted to 10100 M/s. For the same compound, in [2], the Michaelis-Menten constant (Km) stood at 3.23 mM, the Thrombin kcat was 25.4 s⁻¹ and the “Thrombin kcat /Km” value is 7880 M/s. In test [3], the “Factor Xa kcat” value was 2.84 s⁻¹, the “Factor Xa kcat /Km” value was 649 M/s and the Km is 4.38 mM. Further, in test [4], the Km was found to be 2.68 mM, the kcat turned out to be 3.51 s⁻¹ and the “kcat /Km” value is 1310 M/s.

`CC(C)[C@H](NC(=O)CNC(=O)OC(C)(C)C)C(=O)N[C@@H](CCCNC(=N)N)C(=O)Nc1ccc([N+](=O)[O-])cc1.Cl` [Boc-Gly-Val-Arg-pNA.HCl] (Boc-Gly-Val-Arg-pNA): in test [1], the Km amounted to 0.244 mM, the kcat is 11.2 s⁻¹ and the “kcat /Km” value came to 45900 M/s. Besides, in test [2], the Km is 0.244 mM, the Thrombin kcat is 11.2 s⁻¹ and the “Thrombin kcat /Km” value turned out to be 45900 M/s. In test [3], the “Factor Xa kcat” value was 3.51 s⁻¹, the “Factor Xa kcat /Km” value came to 1310 M/s and the Km is 2.68 mM. Besides, in test [4], the Km worked out at 0.959 mM, the kcat stood at 1.90 s⁻¹ and the “kcat /Km” value turned out to be 1980 M/s.

Regarding `COC(=O)CC(=O)N1CCC[C@H]1C(=O)N[C@@H](CCCNC(=N)N)C(=O)Nc1ccc([N+](=O)[O-])cc1` [CH3 O--CO--CH2 --CO-L-Pro-L-Arg-pNA], in test [5], the “rate of hydrolysis for protein C” value is recorded as 0.83. Also, the “rate of hydrolysis for thrombin” value in [6] is reported as 0.68. Also, the “rate of hydrolysis for Factor Xa” value in test [7] is 0.14. Further, the “rate of hydrolysis for plasmin” value in test [8] was 0.230.

On to `COC(=O)CC(=O)N1C[C@H](O)C[C@H]1C(=O)N[C@@H](CCCNC(=N)N)C(=O)Nc1ccc([N+](=O)[O-])cc1` [CH3 O--CO--CH2 --CO-L-4Hyp-L-Arg-pNA], for which the “rate of hydrolysis for protein C” value in [5] is 0.88. The “rate of hydrolysis for thrombin” value in test [6] is listed as 0.61. For the same compound, in test [7], the “rate of hydrolysis for Factor Xa” value is recorded as 0.34. In addition, in test [8], the “rate of hydrolysis for plasmin” value was 1.12.

As for `CC(C)[C@H](NC(=O)[C@H](Cc1ccccc1)NC(=O)c1ccccc1)C(=O)N[C@@H](CCCNC(=N)N)C(=O)Nc1ccc([N+](=O)[O-])cc1` [Benzoyl-Phe-Val-Arg-p-nitroanilide] (Bz-Phe-Val-Arg-pNA), the “kcat /Km” value in test [9] is 90×10^-7 [(NIH units/liter)s]^-1.

With `CC(C)[C@H](NC(=O)[C@@H](N)Cc1ccccc1)C(=O)N[C@@H](CCCNC(=N)N)C(=O)Nc1ccc([N+](=O)[O-])cc1` [H-Phe-Val-Arg-p-nitroanilide] (H-Phe-Val-Arg-pNA), in test [9], the “factor by which poorer substrate for thrombin than Benzoyl-Phe-Val-Arg-p-nitroanilide” value is reported as ≥ 100.

`COC(=O)CC(=O)N[C@H](C(=O)N[C@@H](CCCNC(=N)N)C(=O)Nc1ccc([N+](=O)[O-])cc1)C(C)C.Cl` [MZ-Val-Arg-pNA.HCl]: in test [5], the “rate of hydrolysis for protein C” value is on record as 0.12. The “rate of hydrolysis for thrombin” value in [6] was 0.21. In addition, in test [7], the “rate of hydrolysis for Factor Xa” value was 0.03. Further, in [1], the Km amounted to 1.01 mM, the kcat was 14.4 s⁻¹ and the “kcat /Km” value was 14300 M/s. Moreover, the “rate of hydrolysis for plasmin” value in test [8] was 0.08. In test [2], the Km was found to be 1.01 mM, the Thrombin kcat is 14.4 s⁻¹ and the “Thrombin kcat /Km” value worked out at 14300 M/s. In [3], the “Factor Xa kcat” value worked out at 10.1 s⁻¹, the “Factor Xa kcat /Km” value is 2470 M/s and the Km turned out to be 4.08 mM. Besides, in [4], the Michaelis constant (Km) was determined as 2.57 mM, the kcat worked out at 6.42 s⁻¹ and the “kcat /Km” value was 2500 M/s.

For the compound `CC(C)[C@H](NC(=O)c1ccccc1)C(=O)N[C@@H](CCCNC(=N)N)C(=O)Nc1ccc([N+](=O)[O-])cc1` [benzoyl-Val-Arg-p-nitroanilide] (Bz-Val-Arg-pNA), the “factor by which poorer substrate for thrombin than Benzoyl-Phe-Val-Arg-p-nitroanilide” value in test [9] was ≥ 100.
